Measurements reported in patent US12295955B2, “TTP phosphorylation for the identification of personalized medicines” (KING FAISAL SPECIALIST HOSPITAL & RESEARCH CENTRE, priority 2019, dated 2025).

How the values were obtained:
[1] = tested on: phosphorylated TTP/ZFP36; assay: Western blotting of TTP/ZFP36 phosphorylation in cells treated with kinase inhibitor volasertib; assay type: cell-based
Experimental: The cells were lysed in a mixture of 0.5% NP40 buffer, protease inhibitor and phosphatase inhibitor. The calf intestinal alkaline phosphatase (CIP, Promega, Madison, WI, USA) was used to verify the phosphorylation status of TTP/ZFP36, 20 units were added to the cell lysate (per 250 ul). The cell lysates were loaded and subjected to electrophoresis on 4-12% NuPAGE Bis-Tris gel (Invitrogen, Foster City, CA, USA). Then, the proteins were transferred from the gel to nitrocellulose membranes (Hybond ECL; Amersham Biosciences, Piscataway, NJ) in the presence of NuGAGE 20× transfer buffer (Invitrogen, Foster City, CA, USA). After blocking, membranes were incubated with primary antibodies diluted in 5% bovine serum albumin (BSA) (Sigma-Aldrich, St Louis, MO) at 4° C. overnight. For TTP/ZFP36, a custom-made affinity purified TTP polyclonal antibody and against C-terminal end of TTP and was used previously. This antibody is specific to TTP/ZFP36, but not the ortholog: ZFP36L1 when using 0.5% NP40 buffer instead of Laemmli buffer. Other antibodies are: anti-PLK1 (dilution 1:1000, Cell signaling, Massachusetts, USA), anti-GAPDH (dilution 1:500, Abcam, MA, USA), anti-HA, dilution 1:5000, Roche, Upper Bavaria, Germany). Thereafter, the membranes were incubated with corresponding secondary antibodies (diluted in 5% BSA, 1:2000 dilution) (Santa Cruz Biotech, Santa Cruz, CA) for 1-3 hrs. Protein bands were detected using ECL Western blotting detection reagents (Amersham Biosciences, Amersham, UK) in Molecular Imager ChemiDoc machine (BioRad, Hercules, CA, USA).
An exemplary kinase inhibitor, namely volasertib, was tested for the effects on the level of phosphorylation of TTP. […] The maximum dosage tested was 300 nM, and the lowest tested dose was 10 nM and was still effective (FIG. 2A). […] There was no change in the mobility of ZFP36 as observed with CIP treatment, indicating a partial, rather than complete de-phosphorylation event (as with CIP).

[2] = tested on: uPA; assay: Western blotting of uPA protein (TTP target) after volasertib; assay type: cell-based; conditions: volasertib 330 nM time course, FIG. 2C
Experimental: The cells were lysed in a mixture of 0.5% NP40 buffer, protease inhibitor and phosphatase inhibitor. The calf intestinal alkaline phosphatase (CIP, Promega, Madison, WI, USA) was used to verify the phosphorylation status of TTP/ZFP36, 20 units were added to the cell lysate (per 250 ul). The cell lysates were loaded and subjected to electrophoresis on 4-12% NuPAGE Bis-Tris gel (Invitrogen, Foster City, CA, USA). Then, the proteins were transferred from the gel to nitrocellulose membranes (Hybond ECL; Amersham Biosciences, Piscataway, NJ) in the presence of NuGAGE 20× transfer buffer (Invitrogen, Foster City, CA, USA). After blocking, membranes were incubated with primary antibodies diluted in 5% bovine serum albumin (BSA) (Sigma-Aldrich, St Louis, MO) at 4° C. overnight. For TTP/ZFP36, a custom-made affinity purified TTP polyclonal antibody and against C-terminal end of TTP and was used previously. This antibody is specific to TTP/ZFP36, but not the ortholog: ZFP36L1 when using 0.5% NP40 buffer instead of Laemmli buffer. Other antibodies are: anti-PLK1 (dilution 1:1000, Cell signaling, Massachusetts, USA), anti-GAPDH (dilution 1:500, Abcam, MA, USA), anti-HA, dilution 1:5000, Roche, Upper Bavaria, Germany). […] Protein bands were detected using ECL Western blotting detection reagents (Amersham Biosciences, Amersham, UK) in Molecular Imager ChemiDoc machine (BioRad, Hercules, CA, USA). […]

[3] = tested on: MDA-MB-231 xenografts; assay: MDA-MB-231 xenograft tumor growth in nude mice; assay type: in vivo
Experimental: (§1) FIGS. 4A-4B show kinase inhibition in mice and reduction in TTP phosphorylation. • 4A) PLK1 inhibition and tumor size in mice; MDA-MB-231 xenografts were injected into the mammary fat pad of female nude mice; when tumors become palpable, mice were treated with either volasertib (10 mg/kg) or vehicle twice weekly. The tumor size was calculated as described in Methods. Data are Mean±SEM from a nine-mouse experiment as indicated. Two-way ANOVA was performed for overall effect with Sidak's multiple comparison test (*p<0.05, **** p<0.0001). 4B) The effect of volasertib on TTP/ZFP36 phosphorylation; WB of tumor tissues from each mouse as probed with anti-TTP/ZFP36 or GAPDH as the loading control.
Nude mice were purchased from Jackson Laboratories (Bar Harbor, Maine, USA). The mice were housed at the animal facility at King Faisal Specialist Hospital and Research Center (KFSHRC) and maintained in accordance with protocols approved by the institution Animal Care and Use Committee. […] Tumor growth was measured by caliper, and the volume was calculated by the formula (π/6×L×M2), where L and M refer to the large and small diameters of each tumor, respectively. Mice weight and tumor size were recorded weekly. […]

[4] = tested on: phosphorylated TTP/ZFP36; assay: Western blotting of phosphorylated TTP/ZFP36 in excised xenograft tumor tissues; design: species or system nude mice; conditions: 10 mg/kg in vivo treatment, Western blot, FIG. 4B
Experimental: as §1
The cells were lysed in a mixture of 0.5% NP40 buffer, protease inhibitor and phosphatase inhibitor. […] Protein bands were detected using ECL Western blotting detection reagents (Amersham Biosciences, Amersham, UK) in Molecular Imager ChemiDoc machine (BioRad, Hercules, CA, USA).
Nude mice were purchased from Jackson Laboratories (Bar Harbor, Maine, USA). […] Tumor growth was measured by caliper, and the volume was calculated by the formula (π/6×L×M2), where L and M refer to the large and small diameters of each tumor, respectively. Mice weight and tumor size were recorded weekly. […]

[5] = tested on: phosphorylated TTP; assay: Phosphorylated TTP level in ERBB2 overexpressing SKBR3 cells treated with ERBB2 inhibitor; assay type: cell-based; conditions: SKBR3 breast cancer cell line, FIG. 6B
[6] = dose response, 10 nM to 300 nM, Western blot, FIG. 2A
[7] = time course, volasertib 330 nM, FIG. 2B

Row | Compound | lowest tested dose still effective on TTP / phosphorylated TTP abundance ([1]; FIG. 2A) [nM] | change in the mobility of ZFP36 (partial rather than complete de-phosphorylation) ([1]; compared with CIP treatment) | abundance of phosphorylated TTP [1, 6] | abundance of total TTP [1, 6] | time after treatment at which effect on phosphorylated TTP is first observed [1, 7] [h] | time after treatment of maximal effect on phosphorylated TTP [1, 7] [h] | abundance of the uPA protein [2] | tumor growth versus control group ([3]; 10 mg/kg intraperitoneal twice a week, female nude mice, FIG. 4A upper panel) | difference in tumor volume versus vehicle ([3]; 10 mg/kg twice a week, after 4 weeks of treatment, FIG. 4A lower panel) | phosphorylated TTP/ZFP36 levels in excised tumor tissues versus control [4] | levels of phosphorylated TTP [5]
1 | CC[C@@H]1C(=O)N(C)c2cnc(Nc3ccc(C(=O)N[C@H]4CC[C@H](N5CCN(CC6CC6)CC5)CC4)cc3OC)nc2N1C(C)C [volasertib] | 10 | no change | reduced in a dose-dependent manner | reduced in a dose-dependent manner | 2 | 8 | reduced | slower growth rate and began to regress by the end of the experiment | statistically significant difference | markedly reduced | –
2 | CS(=O)(=O)CCNCc1ccc(-c2ccc3ncnc(Nc4ccc(OCc5cccc(F)c5)c(Cl)c4)c3c2)o1 [lapatinib] | – | – | – | – | – | – | – | – | – | – | reduce the levels of phosphorylated TTP
